According to patent US20090203050A1 (The Regents of the University of California, priority 2005, published 2009):
Entries after “also recorded” stand apart in the source; their conditions may differ.

Key:
Ramos wt cells = assay: DNA fragmentation (PI) apoptosis assay, Ramos wt; assay type: cell-based, human; conditions: wt Ramos; 2MAM-A3 15 μg/ml 7 h, paclitaxel 10 nM 18 h
RR clones = assay: DNA fragmentation apoptosis assay, RR clones (pooled statements); assay type: cell-based, human; conditions: drugs e.g. Paclitaxel, Vincristine, VP-16, CDDP, Adriamycin
Procedure: Thus, we examined if such sensitizing agents can reverse the resistance in the RR clones.
(§1) Percentage of apoptotic cells was determined by evaluation of propidium iodide (PI) stained preparations of cells using an EpicXL flow-cytometer. Cellular debris was excluded from analysis by raising the forward scatter threshold, and DNA content of the intact nuclei was recorded on a logarithmic scale (Nicoletti, I. et al., J. Immunol. Methods, 139:271-9 (1991)). Percent apoptosis is represented as percentage of hypodiploid cells accumulated at sub-G0 phase of cell cycle.
(§2) Cells were left either untreated or pre-treated with DHMEQ (36), bortezomib (Goy, A. et al., Clin. Lymphoma, 4:230-7 (2004)) and PD098059 (Alessi, D. et al., J. Biol. Chem., 270:27489-94 (1995)). Escalating concentrations of various drugs were then added and the percentage of apoptosis was measured.

Daudi wt cells = assay: DNA fragmentation (PI) apoptosis assay, Daudi wt; assay type: cell-based, human; conditions: 2MAM-A3 15 μg/ml 7 h, paclitaxel 10 nM 18 h
Daudi-RR1 = assay: DNA fragmentation (PI) apoptosis assay, Daudi-RR1; conditions: for resistance of clone compared with wt cells / resistance of clone compared with wt cells, value in parentheses / apoptosis, drug alone: 18 h; for apoptosis, drug after DHMEQ pre-treatment: DHMEQ 20 μg/ml 2 h, then highest drug concentration 18 h; for apoptosis, drug alone: highest drug concentration
Procedure: as §1, §2

Ramos-RR1 = assay: DNA fragmentation (PI) apoptosis assay, Ramos-RR1; conditions: for resistance of clone compared with wt cells / resistance of clone compared with wt cells, value in parentheses / apoptosis, drug alone: 18 h; for apoptosis, drug after DHMEQ pre-treatment: DHMEQ 20 μg/ml 2 h, then highest drug concentration 18 h; for apoptosis, drug alone: highest drug concentration
Procedure: as §1, §2

[1] = system: 2F7, Ramos and Daudi wild type and RR clones; assay: TRAIL-mediated apoptosis in B-NHL cell lines and RR clones (DNA fragmentation); assay type: cell-based, human; conditions: inhibitor pretreatment 2 h, then TRAIL 18 h; rituximab-sensitive and -resistant cells
Source text: Patients with B-NHL respond initially to conventional chemotherapy and/or to immunotherapy with rituximab (alone or in combination with chemotherapy). However, patients develop resistance to these modalities and novel approaches are needed. TRAIL is a cytotoxic molecule that exerts selective anti-tumor cytotoxic activity with minimal toxicity to normal tissues. Further, TRAIL or agonist monoclonal antibody (mAb) to TRAIL receptors, DR4 and DR5, are currently being tested clinically. The present study investigated the sensitivity of B-NHL cell lines to TRAIL-mediated apoptosis using the AIDS-related NHL (ARL) B-cell line, 2F7, and the B-NHL cell lines, Ramos and Daudi. Also, to recapitulate various aspects of acquired rituximab-resistance, we have generated rituximab-resistant (RR) clones from the parental wild type (wt) cells. […] We then examined means to reverse […] resistance. We and others have reported that inhibition of NFκB activity can sensitize TRAIL-resistant tumor cells to TRAIL-induced apoptosis. […] Both the rituximab-sensitive and rituximab-resistant tumor cells were sensitized by these inhibitors, though higher concentrations were required for sensitization of the RR clones. […] Based on the findings, patients with resistant B-NHL can be treated with combination of TRAIL/anti-DR4 or DR5 mAb and NFκB inhibitors. Alternatively, these patients can be treated with agents that up-regulate TRAIL expression on host effectors (e.g., T cells, NK cells) in combination with NFκB inhibitors.

2F7RR1 clone = assay: Chemotherapeutic drug-induced apoptosis in 2F7RR1; assay type: cell-based
Source text: (§3) Accordingly, we examined whether inhibition of Bcl-2 in 2F7RR1 can reverse chemoresistance. Since Bcl-2 is under the transcriptional regulation of NFκB, we examined the effect of the NF-κB inhibitors Bortezomib and DHMEQ (Kikuchi, et al., Cancer Research, 63:107 (2003)).
(§4) The mechanism by which B-NHL patients resist treatment is not known. […] We examined the effect of various chemical inhibitors of this signaling pathway on chemosensitization.

[2] = system: p38MAPK/NF-κB/YY1/STAT3 signaling pathways, Bcl-2; assay: Molecular analysis of signaling in 2F7RR1; assay type: cell-based; conditions: 2F7-RR1
Source text: as §3, §4

Ramos and Daudi = conditions: ERK1/2 pathway inhibitors; cited from earlier work
NF-κB and AP-1 DBA = assay: EMSA in RR clones; assay type: cell-based, human
Procedure: FIG. 8. […] A. Total cell lysates (40 μg) were subjected to western blot analysis using phospho-specific Abs for various components of the NF-κB and ERK1/2 pathways. B. The kinase activity of the IKK complex using IκB-α peptide (aa 1-50 including S^32/36) and ERK1/2 using MAPK kinase substrates 4 (aa 172-192) using immune-complex kinase assay. C. […] 10 μg of nuclear lysates were subjected to EMSA (n=2) (19, 20).
The DBAs were evaluated using biotin-labeled oligonucleotide AP-1 (5′-[…]-3′) (Lee, W et al., Cell, 49:741-52 (1987)) and NF-κB (5′-[…] […]-3′) probes (Harada, H. et al., Mol. Cell Biol., 14:1500-9 (1994)) using EMSA kit (Panomics, Inc., Redwood City, Calif.) according to manufacturer's instructions. 10 μg of nuclear extracts were subjected to […] 5% PAGE and developed (Jazirehi, A. et al., Cancer Research, 64:7117-26 (2004); Jazirehi, A. et al., Cancer Research, 65:264-76 (2005)).
Next, alterations in the DBA of NF-κB and AP-1 in the clones were examined.

[3] = Ramos-RR1, 2MAM-A3 35 μg/ml 7 h, paclitaxel 10 nM 18 h

CCCC[C@H]1C(=O)O[C@H](C)[C@H](NC(=O)c2cccc(NC=O)c2OC)C(=O)O[C@@H](C)[C@@H]1OC(=O)CC(C)C [2MAM-A3, 2-methoxyantimycin-A3]
apoptosis, paclitaxel after 2MAM-A3 pre-treatment (Ramos wt cells): 26.7±2.2% | augmentation of paclitaxel cytotoxicity (Ramos wt cells): 1.96 folds | sensitization of RR clones to various chemotherapeutic drugs (RR clones): sensitized | augmentation of paclitaxel cytotoxicity (Daudi wt cells): 1.98 fold | augmentation of paclitaxel cytotoxicity (Daudi-RR1; Daudi-RR1, 2MAM-A3 35 μg/ml 7 h, paclitaxel 10 nM 18 h): 3.2 folds | apoptosis, paclitaxel after 2MAM-A3 pre-treatment (Ramos-RR1; [3]): 39.7±2.4% | augmentation of paclitaxel cytotoxicity (Ramos-RR1; [3]): 4.71 folds

COc1cccc2c1C(=O)c1c(O)c3c(c(O)c1C2=O)C[C@@](O)(C(=O)CO)C[C@@H]3O[C@H]1C[C@H](N)[C@H](O)[C@H](C)O1 [ADR]
resistance of clone compared with wt cells (Daudi-RR1; Daudi-RR1): 1.94 folds | resistance of clone compared with wt cells, value in parentheses (Daudi-RR1; Daudi-RR1): 149% | apoptosis, drug after DHMEQ pre-treatment (Daudi-RR1; Daudi-RR1): 40.5±3.1% | apoptosis, drug alone (Daudi-RR1; Daudi-RR1): 12.4±2.5% | resistance of clone compared with wt cells (Ramos-RR1; Ramos-RR1): 2.3 folds | resistance of clone compared with wt cells, value in parentheses (Ramos-RR1; Ramos-RR1): 158% | apoptosis, drug after DHMEQ pre-treatment (Ramos-RR1; Ramos-RR1): 32.4±2.9% | apoptosis, drug alone (Ramos-RR1; Ramos-RR1): 14.3±3.3%

CC(C)(C)c1ccc(S(=O)(=O)/C=C/C#N)cc1 [Bay 11-7085]
sensitization of RR clones to various chemotherapeutic drugs (RR clones): sensitized | sensitization to TRAIL-induced apoptosis [1]: significant augmentation of apoptosis and synergy was achieved

CC(C)C[C@H](NC(=O)[C@H](Cc1ccccc1)NC(=O)c1cnccn1)B(O)O [Bortezomib]
sensitization of RR clones to various chemotherapeutic drugs (RR clones): sensitized | chemosensitization to drug-induced apoptosis (taxol, vincristine, ADR, CDDP, VP16) (2F7RR1 clone): reversal of resistance; also recorded: significantly sensitized | effect on NF-kB, YY1 and Bcl-2 expression [2]: inhibition of NF-kB, YY1 and downregulated Bcl-2 expression | enhanced cytotoxicity of drugs by inhibitor (Daudi-RR1): 1.7-3.3 folds | enhanced cytotoxicity of drugs by inhibitor (Ramos-RR1): 1.8-5.1 folds | sensitization to TRAIL-induced apoptosis [1]: significant augmentation of apoptosis and synergy was achieved

N.N.[Cl][Pt][Cl] [CDDP]
resistance of clone compared with wt cells (Daudi-RR1; Daudi-RR1): 1.95 folds | resistance of clone compared with wt cells, value in parentheses (Daudi-RR1; Daudi-RR1): 149% | apoptosis, drug after DHMEQ pre-treatment (Daudi-RR1; Daudi-RR1): 36.6±0.9% | apoptosis, drug alone (Daudi-RR1; Daudi-RR1): 25.7±3.1% | resistance of clone compared with wt cells (Ramos-RR1; Ramos-RR1): 1.41 folds | resistance of clone compared with wt cells, value in parentheses (Ramos-RR1; Ramos-RR1): 120% | apoptosis, drug after DHMEQ pre-treatment (Ramos-RR1; Ramos-RR1): 61.2±2.1% | apoptosis, drug alone (Ramos-RR1; Ramos-RR1): 19.0±0.7%

O=C1Nc2ccc(I)cc2/C1=C/c1cc(Br)c(O)c(Br)c1 [GW 5074]
sensitization to drug-induced apoptosis (Ramos and Daudi): also sensitize the cells

COc1cccc(-c2cc(=O)c3ccccc3o2)c1N [PD098059, [2-(2′-amino-3′-methoxyphenyl)-oxanaphthalen-4-one]]
NF-κB and AP-1 DBA (EMSA) (NF-κB and AP-1 DBA): preferentially reduced | sensitization of RR clones to various chemotherapeutic drugs (RR clones): sensitized | sensitization to drug-induced apoptosis (Ramos and Daudi): also sensitize the cells | enhanced cytotoxicity of drugs by inhibitor (Daudi-RR1): 1.5-2.7 folds | enhanced cytotoxicity of drugs by inhibitor (Ramos-RR1): 1.8-3.1 folds
